Patent publication US8394952B2 (Vertex Pharmaceuticals Incorporated, priority 2006, dated 2013)

Target: Plk1 (Homo sapiens, UniProt P53350)
Assay: biochemical

Sequence of Plk1 (P53350 20-338): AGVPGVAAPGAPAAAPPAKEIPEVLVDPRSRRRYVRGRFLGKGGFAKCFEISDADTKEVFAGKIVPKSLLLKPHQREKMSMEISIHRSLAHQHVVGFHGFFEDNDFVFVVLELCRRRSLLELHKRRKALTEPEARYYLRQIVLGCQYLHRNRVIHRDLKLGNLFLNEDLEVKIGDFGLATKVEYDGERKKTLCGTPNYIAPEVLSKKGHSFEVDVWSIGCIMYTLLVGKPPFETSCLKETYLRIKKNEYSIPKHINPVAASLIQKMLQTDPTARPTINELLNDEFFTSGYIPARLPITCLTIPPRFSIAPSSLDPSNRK

Row | Ki [nM] | SMILES
1 | < 10 | COc1cc(C(=O)NCC2CCOCC2)ccc1Nc1ncc2c(n1)N(C1CCCC1)CC(C)(C)C(=O)N2C [Compound I-195, 4-(9-cyclopentyl-5,7,7-trimethyl-6-oxo-6,7,8,9-tetrahydro-5H-pyrimido[4,5-b][1,4]diazepin-2-ylamino)-3-methoxy-N-((tetrahydrofuran-2H-pyran-4-yl)methyl)benzamide]
2 | < 10 | COc1cc(C(=O)NCC2CCCCC2)ccc1Nc1ncc2c(n1)N(C1CCCC1)CC(C)(C)C(=O)N2C [Compound I-196, N-(cyclohexylmethyl)-4-(9-cyclopentyl-5,7,7-trimethyl-6-oxo-6,7,8,9-tetrahydro-5H-pyrimido[4,5-b][1,4]diazepin-2-ylamino)-3-methoxybenzamide]
3 | < 10 | COCCNC(=O)c1ccc(Nc2ncc3c(n2)N(C2CCCC2)CC(C)(C)C(=O)N3C)c(OC)c1 [Compound I-197, 4-(9-cyclopentyl-5,7,7-trimethyl-6-oxo-6,7,8,9-tetrahydro-5H-pyrimido[4,5-b][1,4]diazepin-2-ylamino)-3-methoxy-N-(2-methoxyethyl)benzamide]
4 | < 10 | COCCCNC(=O)c1ccc(Nc2ncc3c(n2)N(C2CCCC2)CC(C)(C)C(=O)N3C)c(OC)c1 [Compound I-198, 4-(9-cyclopentyl-5,7,7-trimethyl-6-oxo-6,7,8,9-tetrahydro-5H-pyrimido[4,5-b][1,4]diazepin-2-ylamino)-3-methoxy-N-(3-methoxypropyl)benzamide]
5 | < 10 | COc1cc(C(=O)N2CCOCC2)ccc1Nc1ncc2c(n1)N(C1CCCC1)CC(C)(C)C(=O)N2C [Compound I-199, 9-cyclopentyl-2-(2-methoxy-4-(morpholine-4-carbonyl)phenylamino)-5,7,7-trimethyl-8,9-dihydro-5H-pyrimido[4,5-b][1,4]diazepin-6(7H)-one]
6 | < 10 | COc1cc(C(=O)Nc2ccccc2)ccc1Nc1ncc2c(n1)N(C1CCCC1)CC(C)(C)C(=O)N2C [Compound I-200, 4-(9-cyclopentyl-5,7,7-trimethyl-6-oxo-6,7,8,9-tetrahydro-5H-pyrimido[4,5-b][1,4]diazepin-2-ylamino)-3-methoxy-N-phenylbenzamide]
7 | < 10 | COc1cc(C(=O)NCc2ccccc2)ccc1Nc1ncc2c(n1)N(C1CCCC1)CC(C)(C)C(=O)N2C [Compound I-201]
8 | < 10 | COc1cc(C(=O)NCc2cccnc2)ccc1Nc1ncc2c(n1)N(C1CCCC1)CC(C)(C)C(=O)N2C [Compound I-202, 4-(9-cyclopentyl-5,7,7-trimethyl-6-oxo-6,7,8,9-tetrahydro-5H-pyrimido[4,5-b][1,4]diazepin-2-ylamino)-3-methoxy-N-(pyridin-3-ylmethyl)benzamide]
9 | < 10 | COc1cc(C(=O)NCCc2ccccc2)ccc1Nc1ncc2c(n1)N(C1CCCC1)CC(C)(C)C(=O)N2C [Compound I-203, 4-(9-cyclopentyl-5,7,7-trimethyl-6-oxo-6,7,8,9-tetrahydro-5H-pyrimido[4,5-b][1,4]diazepin-2-ylamino)-3-methoxy-N-phenethylbenzamide]
10 | < 10 | COc1cc(C(=O)N[C@H]2CC[C@H](O)CC2)ccc1Nc1ncc2c(n1)N(C1CCCC1)CC(C)(C)C(=O)N2C [Compound I-204, 4-(9-cyclopentyl-5,7,7-trimethyl-6-oxo-6,7,8,9-tetrahydro-5H-pyrimido[4,5-b][1,4]diazepin-2-ylamino)-N-((1R,4R)-4-hydroxycyclohexyl)-3-methoxybenzamide]
11 | < 10 | COc1cc(C(=O)NCC2(O)CCCCC2)ccc1Nc1ncc2c(n1)N(C1CCCC1)CC(C)(C)C(=O)N2C [Compound I-205, 4-(9-cyclopentyl-5,7,7-trimethyl-6-oxo-6,7,8,9-tetrahydro-5H-pyrimido[4,5-b][1,4]diazepin-2-ylamino)-N-((1-hydroxycyclohexyl)methyl)-3-methoxy-benzamide]
12 | < 10 | COc1cc(C(=O)NN2CCCC2)ccc1Nc1ncc2c(n1)N(C1CCCC1)CC(C)(C)C(=O)N2C [Compound I-206, 4-(9-cyclopentyl-5,7,7-trimethyl-6-oxo-6,7,8,9-tetrahydro-5H-pyrimido[4,5-b][1,4]diazepin-2-ylamino)-3-methoxy-N-(pyrrolidin-1-yl)benzamide]
13 | < 10 | COc1cc(C(=O)Nc2cccnc2)ccc1Nc1ncc2c(n1)N(C1CCCC1)CC(C)(C)C(=O)N2C [Compound I-207, 4-(9-cyclopentyl-5,7,7-trimethyl-6-oxo-6,7,8,9-tetrahydro-5H-pyrimido[4,5-b][1,4]diazepin-2-ylamino)-3-methoxy-N-(pyridin-3-yl)benzamide]
14 | < 10 | COc1cc(C(=O)N2CC(F)(C3CC3)C2)ccc1Nc1ncc2c(n1)N(C1CCCC1)CC(C)(C)C(=O)N2C [Compound I-208, 9-cyclopentyl-2-(4-(3-cyclopropyl-3-fluoroazetidine-1-carbonyl)-2-methoxyphenylamino)-5,7,7-trimethyl-8,9-dihydro-5H-pyrimido[4,5-b][1,4]diazepin-6(7)-one]
15 | < 10 | COc1cc(C(=O)N[C@@H]2CCc3ccccc32)ccc1Nc1ncc2c(n1)N(C1CCCC1)CC(C)(C)C(=O)N2C [Compound I-209, (R)-4-(9-cyclopentyl-5,7,7-trimethyl-6-oxo-6,7,8,9-tetrahydro-5H-pyrimido[4,5-b][1,4]diazepin-2-ylamino)-N-(2,3-dihydro-1H-inden-1yl)-3-methoxy-benzamide]
16 | < 10 | COc1cc(C(=O)NC2CC3CCC2C3)ccc1Nc1ncc2c(n1)N(C1CCCC1)CC(C)(C)C(=O)N2C (centres unmarked) [Compound I-210, N-(bicyclo[2.2.1]heptan-2-yl)-4-(9-cyclopentyl-5,7,7-trimethyl-6-oxo-6,7,8,9-tetrahydro-5H-pyrimido[4,5-b][1,4]diazepin-2-ylamino)-3-methoxybenzamide]
17 | < 10 | COc1cc(C(=O)NCC(C)(C)CO)ccc1Nc1ncc2c(n1)N(C1CCCC1)CC(C)(C)C(=O)N2C [Compound I-211, 4-(9-cyclopentyl-5,7,7-trimethyl-6-oxo-6,7,8,9-tetrahydro-5H-pyrimido[4,5-b][1,4]diazepin-2-ylamino)-N-(3-hydroxy-2,2-dimethylpropyl)-3-methoxybenzamide]
18 | < 10 | COc1cc(C(=O)NCc2ccncc2)ccc1Nc1ncc2c(n1)N(C1CCCC1)CC(C)(C)C(=O)N2C [Compound I-212, 4-(9-cyclopentyl-5,7,7-trimethyl-6-oxo-6,7,8,9-tetrahydro-5H-pyrimido[4,5-b][1,4]diazepin-2-ylamino)-3-methoxy-N-(pyridin-4-ylmethyl)benzamide]
19 | < 10 | COc1ccc(CNC(=O)c2ccc(Nc3ncc4c(n3)N(C3CCCC3)CC(C)(C)C(=O)N4C)c(OC)c2)cc1 [Compound I-213, 4-(9-cyclopentyl-5,7,7-trimethyl-6-oxo-6,7,8,9-tetrahydro-5H-pyrimido[4,5-b][1,4]diazepin-2-ylamino)-3-methoxy-N-(4-methoxybenzyl)benzamide]
20 | < 10 | COc1cc(C(=O)NCc2ccc(S(C)(=O)=O)cc2)ccc1Nc1ncc2c(n1)N(C1CCCC1)CC(C)(C)C(=O)N2C [Compound I-214, 4-(9-cyclopentyl-5,7,7-trimethyl-6-oxo-6,7,8,9-tetrahydro-5H-pyrimido[4,5-b][1,4]diazepin-2-ylamino)-3-methoxy-N-(4-(methylsulfonyl)benzyl)benzamide]
